The test concerns Hemicentrotus pulcherrimus. As to the kind of experiment: Ability of the embryo (sea urchin, Hemicentrotus pulcherrimus) to form spicule deficient plutei when treated with the compound at a concentration of 0.4-12 uM; not active. The class given is functional, organism-based.

Calls of active or inactive are those of the source. No cut-off for these calls is given here.

For one compound, Activity results are on record in ChEMBL document CHEMBL1134925, “Exiguamide, a new spirocyclic sesquiterpene from the marine sponge Geodia exigua that inhibits cell fate specification during sea urchin embryogenesis” (Bioorg Med Chem Lett, 2002).

On to `CC1=C[C@@]2(CC1)[C@H](NC=O)[C@H](C(C)C)CC[C@@H]2C`, for which the result was inactive.
